Legend:
[1] = molecular target: Prostaglandin G/H synthase 1 (Ovis aries) (UniProt P05979); assay: Inhibition of COX1
[2] = molecular target: Prostaglandin G/H synthase 1 (Ovis aries) (UniProt P05979); assay: Inhibition of COX1 at 100 uM
[3] = molecular target: Prostaglandin G/H synthase 1 (Ovis aries) (UniProt P05979); assay: Inhibition of COX1 at 200 uM

Prostaglandin G/H synthase 1 (Ovis aries), sequence (P05979 whole entry, looked up): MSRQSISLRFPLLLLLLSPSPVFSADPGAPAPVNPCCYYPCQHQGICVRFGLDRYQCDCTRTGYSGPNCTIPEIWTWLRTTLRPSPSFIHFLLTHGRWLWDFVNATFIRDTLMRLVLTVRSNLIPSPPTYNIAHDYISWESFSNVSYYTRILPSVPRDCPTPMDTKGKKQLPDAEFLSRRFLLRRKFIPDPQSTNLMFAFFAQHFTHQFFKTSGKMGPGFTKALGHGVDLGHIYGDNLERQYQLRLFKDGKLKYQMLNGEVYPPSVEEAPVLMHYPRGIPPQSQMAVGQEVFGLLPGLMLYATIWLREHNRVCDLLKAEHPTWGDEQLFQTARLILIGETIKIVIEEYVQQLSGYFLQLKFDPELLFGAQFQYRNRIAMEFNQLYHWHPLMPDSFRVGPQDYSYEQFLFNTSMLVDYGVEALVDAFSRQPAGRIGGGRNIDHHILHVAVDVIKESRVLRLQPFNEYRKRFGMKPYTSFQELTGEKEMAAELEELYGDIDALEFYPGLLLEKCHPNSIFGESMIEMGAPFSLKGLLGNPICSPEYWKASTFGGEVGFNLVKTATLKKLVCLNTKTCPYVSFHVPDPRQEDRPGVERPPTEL

| Structure (SMILES) | IC50 [1] [µM] | inhibition [2] [%] | inhibition [3] [%] |
| --- | --- | --- | --- |
| CC1=C/C(=C2\C(=O)N(c3ccccc3)N=C2C)OC(=O)N1c1ccc(Cl)cc1 | 251 | 21.9 | – |
| CCCN1C(=O)O/C(=C2/C(=O)N(c3ccccc3)N=C2C)C=C1C | – | 16 | – |
| CC1=C/C(=C2\C(=O)N(c3ccccc3)N=C2C)OC(=O)N1c1ccc(Br)cc1 | – | 15 | – |
| CCN1C(=O)O/C(=C2/C(=O)N(c3ccccc3)N=C2C)C=C1C | – | 0 | 19.9 |
| COc1ccc(N2C(=O)O/C(=C3/C(=O)N(c4ccccc4)N=C3C)C=C2C)cc1 | 269 | 22.6 | – |
| CC1=C/C(=C2\C(=O)N(c3ccccc3)N=C2C)OC(=O)N1Cc1ccccc1 | – | 18 | – |
| CC1=C/C(=C2\C(=O)N(c3ccccc3)N=C2C)OC(=O)N1c1ccccc1 | 79.4 | 61.8 | – |
| CC1=C/C(=C2\C(=O)N(c3ccccc3)N=C2C)OC(=O)N1c1ccc(C)cc1 | 91.2 | 54.6 | – |

From ChEMBL document CHEMBL1143947, “Synthesis and in silico biological activity evaluation of new N-substituted pyrazolo-oxazin-2-one systems” (Bioorg Med Chem, 2008)
